Data: patent US20240409890A1, “UFMYLATION INHIBITION TO TARGET TAUOPATHY IN HUMAN NEURONS” (priority 2023, published 2024)

Legend:
Format in all cases: cell-based, human
[1] = test system: hM4Di-expressing 4R-P301S neurons; test: Calcium imaging of acute neuronal silencing by CNO; settings: upon addition of CNO
Protocol: 4R-P301S-HaloTag iPSCs were differentiated into neurons on coverslips as described. Neurons were transduced with hSyn-jGCaMP8f lentivirus on D6. This lentiviral construct was made using the 3rd generation lentiviral plasmid FUGW (Addgene, 14883), where the PacI+EcoRI fragment was replaced by the hSyn-GCaMP8f fragment (Zhang et al., 2023). pGP-AAV-hSyn-jGCaMP8f-WPRE was a gift from GENIE Project (Addgene, 162376). The medium was changed on D7, and neurons were seeded with […] K18-tau fibrils. Neurons were maintained as described until imaging at 4 and 5 weeks old. On the day of imaging, JFX-549 HaloTag ligand (HHMI Janelia) was diluted into fresh maturation medium to […], and one-fifth of neuronal medium was replaced with diluted ligand (200 nM final ligand concentration). Cells were incubated at 37° C. for 15 minutes. An equal volume of medium was replaced with half-fresh medium, and half-conditioned medium from a control well. […] Fluorescence time-lapse images were collected on a Nikon FN1 microscope using a 60×, 1.0 NA objective (CFI APO 60XW NIR, Nikon) and a C-FL GFP filter cube. […]
4R-P301S-HaloTag iPSCs were differentiated into neurons on coverslips as described. […] For MC1 quantification, stained neurons were imaged with a fluorescence microscope (Keyence BZ-X710). […] Neurons were perfused with 10 μM CNO at 60 seconds and calcium traces in one field were recorded for 400 seconds.

[2] = test system: hM4Di-expressing K18-seeded 4R-P301S-HaloTag neurons; test: DREADDs chronic neuronal silencing, MC1 tau inclusions; settings: CNO weekly for 2 weeks starting one week after K18 seeding
Protocol: 4R-P301S-HaloTag iPSCs were differentiated into neurons on coverslips as described. Neurons were transduced with hSyn-hM4Di-mCherry lentivirus on D6. This lentiviral construct was made using the 3rd generation lentiviral plasmid FUGW (Addgene, 14883), where the PacI+EcoRI fragment was replaced by hSyn-hM4D(Gi)-mCherry. pAAV-hSyn-hM4D(Gi)-mCherry was a gift from Bryan Roth (Addgene, 50475; http://n2t.net/addgene). The medium was changed on D7, and neurons were seeded with […] K18-tau fibrils. Neurons were maintained as described. Beginning at D14, clozapine-N-oxide (CNO; Tocris) was included in weekly media changes for a final concentration of […]. Neurons were fixed and stained with MC1 on D29. For MC1 quantification, stained neurons were imaged with a fluorescence microscope (Keyence BZ-X710). A 20× objective was used to acquire a series of 10 Z-stack images per coverslip. To validate the neuronal silencing effect of CNO by calcium imaging, 4R-P301S neurons were differentiated and transduced with hSyn-hM4Di-mCherry and hSyn-GCaMP8f lentivirus on D6. At D36, JFX-549 was added to neurons and prepared for imaging as described above. Exposure time was set to 20 milliseconds. Neurons were perfused with 10 μM CNO at 60 seconds and calcium traces in one field were recorded for 400 seconds.

[3] = test system: tau inclusion in K18-seeded 4R-P301S neurons; test: UBA5 inhibitor treatment, flow cytometry of MC1+ tau inclusions; settings: for tau inclusion induced by K18 seeding (MC1+/DAPI+ neurons) compared with control treatment group: treated Day 5, 3.0 ug/mL K18 Day 7, FACS Day 21
Protocol: Pre-differentiation of human iPSCs into neurons was initiated by plating 1.5×10^6 iPSCs in one well Matrigel-coated 6-well plates with Knockout DMEM/F-12 media containing doxycycline ([…]), N2 supplement, non-essential amino acids, brain-derived neurotrophic factor (10 ng/mL, Peprotech), neurotrophin-3 (10 ng/mL, PeproTech) and ROCK inhibitor (Y-27632, Cayman chemicals). The media was replaced the next day without ROCK inhibitor, and pre-differentiation was maintained for a total of three days. On day 0, the pre-differentiated precursor cells were dissociated with Accutase and re-plated generally onto Laminin-coated coverslips (Neuvitro) at 1.5×10^5 cells/coverslip or 12-well tissue culture plates (Corning) at 3.8×10^5 cells/well for the growth of neuronal cultures in Neurobasal Plus media containing B27 supplement, Glutamax, BDNF (10 ng/mL) and NT3 (10 ng/mL) with doxycycline (2 μg/mL). Half of the medium was replaced on day 3, as well as on day 7 with the removal of doxycycline from the fresh media. The medium volume was doubled on day 21. Thereafter, one-half of the medium was replaced with fresh medium weekly until the cells were collected. All human iPS cell lines used in this work have been regularly tested for mycoplasma (Lonza) and karyotyped (MSK Molecular Cytogenetics Core).
Myc-tagged K18-P301L Tau was expressed and purified as previously described2. Briefly, protein expression was induced in Terrific Broth containing the chemical chaperone betaine (10 mM) and IPTG (500 uM) for 3 hrs at 30° C. Tau was purified via the following major steps: mechanical lysis, boiling, centrifugation, and cation exchange. Purified Tau fractions were dialyzed into aggregation assay buffer (PBS pH 7.4, 2 mM DTT). To minimize potential endotoxin contamination, purified tau was incubated with poly(epsilon-lysine) conjugated resin (Pierce), then tested post-treatment for endotoxin levels using the ToxinSensor™ Chromogenic LAL Endotoxin Assay Kit (Genscript). […] The concentration of aggregated tau was quantified by Pierce BCA assay. […]

[4] = test system: 4R-P301S iPSC-derived neurons; test: Toxic effect of UBA5 inhibitor on iPSC-derived neurons; settings: 5 uM, 10 uM and 20 uM (data not shown)
Protocol: 4R-P301S iPSCs were seeded at the density of 1.2×10^7 per plate in 10-cm plates in pre-differentiation medium. On day 0, pre-differentiated neurons were replated at the density of 4×10^5 per well in poly-D-lysine (PDL) pre-coated 12-well plates (Corning) in maturation medium. On day 5, iPSCs differentiated neurons were treated with three UBA5 inhibitors separately ay various concentrations. On day 7, iPSCs differentiated neurons were treated with […] K18 fibrils for 2 weeks. On day 21, neurons in 12-well plates were collected for flow cytometry analysis.

Row | SMILES | neuronal activities (calcium imaging) [1] | levels of Tau inclusions (MC1+ aggregates) compared with vehicle treatment [2] | tau inclusion induced by K18 seeding (MC1+/DAPI+ neurons) compared with control treatment group ([3]; 0.1 uM) | tau inclusion induced by K18 seeding (MC1+/DAPI+ neurons) compared with control treatment group ([3]; 1 uM) | percentage of MC1+ cells (tau inclusion induced by K18 treatment) ([3]; D21(7+14), 3 μg/ml K18-seeded 4R-P301S neurons pre-treated at various concentrations, FIG. 15 legend) | toxic effect on neurons [4]
1 | C[N+]1([O-])CCN(C2=Nc3cc(Cl)ccc3Nc3ccccc32)CC1 [CNO, clozapine-N-oxide] | silenced | significantly reduced | – | – | – | –
2 | CC(=O)c1c(O)c(C)c(O)c2c1OC1=CC(=O)/C(=C(/C)N)C(=O)[C@@]12C [Usenamine A, (2E,9bR)-6-acetyl-2-(1-aminoethylidene)-7,9-dihydroxy-8,9b-dimethyldibenzouran-1,3-dione] | – | – | failed to prevent tau inclusion | successfully prevented tau inclusion | prevented the tau inclusion | exerted toxic effect on neurons
